Laboratory results reported in patent publication EP1591123A1, “USES OF NARINGENIN, NARINGIN AND SALTS THEREOF AS EXPECTORANTS IN THE TREATMENT OF COUGH, AND COMPOSITIONS THEREOF” (Su, Wei-wei, priority 2003, dated 2004).
Where a name gives a salt, the structure may show the parent alone.

What was measured:
NIH mice = assay: Antitussive test of Naringin, spraying with concentrated ammonia liquor (Example 28); type: in vivo; settings: for R Value: EDT50 of the treatment / EDT50 of the control x 100%; for EDT50: mice, intra-gastrointestinal, ammonia spray 1 hour after dosing
From the text: 1.Animals: As the stock animals, totally 130 NIH mice, male, each weighed 18.2~21.7g within ordinary standard. Weigh and number each mice accurately first, then pick out the 120 healthy ones who weighed in range from 18.5~21.0g. Ranked in weigh, they were divided into 8 groups in random with each 15. Set up reference groups of negative and positive, and sample groups of high-dose, mid-dose, low-dose Naringin and sodium Naringinate.
• 1) Blank control group: physiological saline, 0.9% NaCl; • 2) Positive control group: 30 mg dextromethorphan hydrobromide was weighed into a 20ml volumetric flask, and physiological saline was accurately added to the volume to obtain the solution for positive control at concentration of 5mg/ml° • 3) Group of low-dose sample Naringin: Proper amount of Naringin was weighed into a suitable volumetric flask, and physiological saline was added to the volume to obtain the solution at concentration of 0.5mg/ml. • 4) Group of mid-dose sample Naringin: Proper amount of Naringin was weighed into a suitable volumetric flask, and physiological saline was added to the volume to obtain the solution at concentration of 1.5mg/ml. • 5) Group of high-dose sample Naringin: Proper amount of Naringin was weighed into a suitable volumetric flask, and physiological saline was added to the volume to obtain the solution at concentration of 4.5mg/ml. • 6) Group of low-dose sample sodium Naringinate: Proper amount of sodium Naringin was weighed into a suitable volumetric flask, and physiological saline was added to the volume to obtain the solution at concentration of 0.5mg/ml. • 7) Group of mid-dose sample sodium Naringinate: Proper amount of sodium Naringin was weighed into a suitable volumetric flask, and physiological saline was added to the volume to obtain the solution at concentration of 1.5mg/ml. • 8) Group of high-dose sample sodium Naringinate: Proper amount of sodium Naringin was weighed into a suitable volumetric flask, and physiological saline was added to the volume to obtain the solution at concentration of4.5mg/ml.
One hour after intra-gastrointestinal administering for the mice, spray with concentrated ammonia liquor for certain intervals. Immediately the spraying was over, put away the mice outside and observe the tussive action. Mark down the times for which they coughed within 1 minute. Only when they coughed, which was characteristic of compression of abdomen or chest with their mouths open, and making coughing noise, for more than 3 times within a minute, tussive action could be admitted.
Calculate the median effective dose(EDT50) with sequential trials. Work out the amount of R with the formula below. If R is greater than 130%, it means the drug will be effective on antitussive action. If R is greater than 150%, it means the drug will be remarkably effective on antitussive action. The formula is shown as below: R =(EDT50 of the treatmnet)/(EDT50 of the control)× 100% [formula] EDT50=log-1c/n(n for amount of animals, c for summation of rx, r for amount of animals in each group, x for logarithm of the dose (time for spraying) )

mice = assay: Antitussive test of Naringenin, spray by high concentration ammonia (Example 30); type: in vivo; settings: for R Value: EDT50 of the treatment / EDT50 of the control x 100%; for EDT50: mice, oral, dose 0.2 (mg/20g), spray one hour later
From the text: 1. Animal: 120 healthy male mice weighing 19.5-22.1g was grouped into 8 groups random after labeled, which was selected from 130 male mice weighing 19.3-22.6g. Every group was 15 mice. Eight group were set including negative control group, positive control group, high dose group of Naringenin, middle dose group of Naringenin, low dose group of Naringenin, high dose group of sodium salt of Naringenin, middle dose group of sodium salt of Naringenin, low dose group of sodium salt of Naringenin.
• 1) Blank control group: physiological saline, 0.9% NaCl; • 2) Positive control group: 30mg Dextromethorphan Hydrobromide was dissolve into 20 ml physiological saline and the sample concentration was 1.5 mg/ml to obtain the solution for positive control. • 3) low dose group of Naringenin: weighting out the appropriate amount of Naringenin and dissolving it in physiological saline, then the sample concentration was 0.5 mg/ml. • 4) middle dose group of Naringenin: weighting out the appropriate amount of Naringenin and dissolving it in physiological saline, then the sample concentration was 1.5mg/ml. • 5) high dose group of Naringenin: weighting out the appropriate amount of Naringenin and dissolving it in physiological saline, then the sample concentration was 4.5 mg/ml. • 6) low dose group of sodium salt of Naringenin: weighting out the appropriate amount of sodium salt of Naringenin and dissolving it in physiological saline, then the sample concentration was 0.5 mg/ml. • 7) middle dose group of sodium salt of Naringenin: weighting out the appropriate amount of sodium salt of Naringenin and dissolving it in physiological saline, then the sample concentration was 1.5 mg/ml. • 8) high dose group of sodium salt of Naringenin: weighting out the appropriate amount of sodium salt of Naringenin and dissolving it in physiological saline, then the sample concentration was 4.5 mg/ml.
Animals were oral administered, and were sprayed one hour later. After the spray took out the animals and observed the tussive action. Observed the time of tussis in one minutes, if it appeared typical tussis three times in one minutes(shrinking the abdomen muscle or shrinking chest, puffing mouth at the same time, sometimes appearing tussive sound), we consider it "appearing tussis", otherwise "no tussis".
We calculated the spraying time that half of mice were tusisive by sequential method. And calculated the R, the drug was provided with effect of relieve a cough if R>130%. The drug was provided with remarkable effect of relieve a cough if R>150%. Underside is expressions: R=(EDT50 of the treatment)/(EDT50 of the control)× 100% [formula] EDT50=log^-1c/n ('n' is the number of animal, 'c' is the sum of 'rx' value, 'r' is the number of animal in every group, 'x' is the logarithm of dose(namely spray time).)

[1] = 0.2 ml/20g of 0.5 mg/ml, listed as sodium naringinate
[2] = 0.2 ml/20g of 1.5 mg/ml, listed as sodium naringinate
[3] = 0.2 ml/20g of 4.5 mg/ml, listed as sodium naringinate

| Structure (SMILES) | Effect of relieving cough (NIH mice; 0.2 ml/20g of 0.5 mg/ml) | Effect of relieving cough (NIH mice; 0.2 ml/20g of 1.5 mg/ml) | Effect of relieving cough (NIH mice; 0.2 ml/20g of 4.5 mg/ml) | R Value (mice; sample concentration 0.5 mg/ml) | R Value (mice; sample concentration 1.5 mg/ml) | R Value (mice; sample concentration 4.5 mg/ml) | EDT50 (mice; sample concentration 0.5 mg/ml) | EDT50 (mice; sample concentration 1.5 mg/ml) | EDT50 (mice; sample concentration 4.5 mg/ml) | Effect of relieving cough (mice; sample concentration 0.5 mg/ml) | Effect of relieving cough (mice; sample concentration 1.5 mg/ml) | Effect of relieving cough (mice; sample concentration 4.5 mg/ml) | other results |
| --- | --- | --- | --- | --- | --- | --- | --- | --- | --- | --- | --- | --- | --- |
| C[C@@H]1O[C@@H](O[C@H]2[C@H](Oc3cc(O)c4c(c3)O[C@H](c3ccc(O)cc3)CC4=O)O[C@H](CO)[C@@H](O)[C@@H]2O)[C@H](O)[C@H](O)[C@H]1O [sodium salt of Naringin] | effective (If R is greater than 130%, it means the drug will be effective on antitussive action) | remarkably effective (If R is greater than 150%, it means the drug will be remarkably effective on antitussive action) | remarkably effective (If R is greater than 150%, it means the drug will be remarkably effective on antitussive action) |  |  |  |  |  |  |  |  |  | R Value (NIH mice; [1]): 142.35%; R Value (NIH mice; [2]): 155.84%; R Value (NIH mice; [3]): 163.94%; EDT50 (NIH mice; [1]): 57.68 s; EDT50 (NIH mice; [2]): 63.15 s; EDT50 (NIH mice; [3]): 66.43 s |
| C[C@@H]1O[C@@H](O[C@H]2[C@H](Oc3cc(O)c4c(c3)O[C@H](c3ccc(O)cc3)CC4=O)O[C@H](CO)[C@@H](O)[C@@H]2O)[C@H](O)[C@H](O)[C@H]1O [Naringin, 4', 5', 7-trihydroxyflavanone-7-rhamnoneglucoside] | effective (If R is greater than 130%, it means the drug will be effective on antitussive action) | remarkably effective (If R is greater than 150%, it means the drug will be remarkably effective on antitussive action) | remarkably effective (If R is greater than 150%, it means the drug will be remarkably effective on antitussive action) |  |  |  |  |  |  |  |  |  | R Value (NIH mice; 0.2 ml/20g of 0.5 mg/ml): 139.21%; R Value (NIH mice; 0.2 ml/20g of 1.5 mg/ml): 151.36%; R Value (NIH mice; 0.2 ml/20g of 4.5 mg/ml): 161.72%; resistance time against cough (NIH mice; compared with dextromethorphan hydrobromide): remarkably longer; EDT50 (NIH mice; 0.2 ml/20g of 0.5 mg/ml): 56.41 s; EDT50 (NIH mice; 0.2 ml/20g of 1.5 mg/ml): 61.33 s; EDT50 (NIH mice; 0.2 ml/20g of 4.5 mg/ml): 65.53 s |
| O=C1CC(c2ccc(O)cc2)Oc2cc(O)cc(O)c21 (centres unmarked) [Naringenin, 4', 5, 7 -trihydroxyflavanone] |  |  |  | 131.85% | 169.85% | 171.23% | 51.29 s | 66.07 s | 66.61 s | effect (the drug was provided with effect of relieve a cough if R>130%) | remarkably effect (The drug was provided with remarkable effect of relieve a cough if R>150%) | remarkably effect (The drug was provided with remarkable effect of relieve a cough if R>150%) | time of appearing tussis (mice; compared with Dextromethorphan Hydrobromide (positive control group)): statistical significance prolonging the time |
| O=C1C[C@@H](c2ccc(O)cc2)Oc2cc(O)cc(O)c21 [sodium salt of Naringenin] |  |  |  | 142.3% | 178.6% | 189.1% | 55.35 s | 69.48 s | 73.56 s | effect (the drug was provided with effect of relieve a cough if R>130%) | remarkably effect (The drug was provided with remarkable effect of relieve a cough if R>150%) | remarkably effect (The drug was provided with remarkable effect of relieve a cough if R>150%) |  |
